# Assay results published in US20150071918A1, “PEPTIDES FOR THE TREATMENT OF CANCER” (H. LEE MOFFITT CANCER CENTER AND RESEARCH INSTITUTE, INC., priority 2012, published 2015).
# Read-outs that look alike come from different tables or passages of the source. *1 amine or outer side, *2 acyl side, *3 side chain or, on linkers, in order; H or OH if unused. Where a SMILES comes first, the peptide text is derived from it. Bridges are numbered along the chain shown (N, C = ends). Primed or numbered codes have the meaning given here. [ ]: non-standard residue; d: D form. The star is where a group is joined. T1 = linker NH2CH2CH2N(SO2Me)CH2COOH, CS(=O)(=O)N(CCN[*:1])CC(=O)[*:2]; T1″ = NH2CH2CH2N(SO2Me)CH2COOH, CS(=O)(=O)N(CCN[*:1])CC(=O)[*:2]; dProlinol(O-CH2CO) = O=C(COC[C@H]1CCCN1[*:1])[*:2]; N(2-Aminoethyl)Gly = O=C(CN(CCN[*:3])[*:1])[*:2]; Nle = CCCC[C@H](N)C(=O)O; Ms = CS(=O)(=O)*; Sar = CNCC(=O)O
# Tested on: H929 myeloma cells
# Type: cell-based, human
# Details: for fold more potent than linear HYD1: reference of the 10- and 15-fold statements not expressly named; for bioactivity relative to parent/comparator peptide: SAR statements; for activity relative to linear D-HYD1 (words): TOPRO 3
# Protocol: H929 cells were treated for 24 hours with varying concentrations of peptide. Cell death was measured by Topro-3 staining and FACS analysis. The IC50 values were obtained from linear regression analysis and an average value was obtained from 3 independent experiments.
# Table 4 legend: Structure activity relationship in H929 myeloma cells of cyclic INTEGRIN INTERACTION INHIBITORS derivatives. The minimal bioactive core sequence of INTEGRIN INTERACTION INHIBITORS WSVVM (SEQ ID NO:33) was cyclized using 2 novel reduced amide bond beta turn promoters and KLKLK (SEQ ID NO:34) as the non-recognition sequence. H929 cells were treated with varying concentrations of the indicated peptide for 24 h. Cell viability was determined using Topro-3 staining and FACS analysis after drug treatment. IC50 values were generated from linear regressions generated from the dose response curves (n=mean of 3 independent experiments).
# A colony forming assay was used to compare induced cell death in H929 multiple myeloma cells. Cells were treated with integrin interaction inhibitors, shown in FIG. 5 and Table 4, and cell death was measured following 24 hour peptide treatment by TOPRO-3 staining and FACS analysis.
# [1] = H929 myeloma cells, 24 h treatment, Topro-3 staining and FACS, mean of at least 3 independent experiments, read-out: IC50
# [2] = Table 8, cyclic III peptide analogs, H929 cells, read-out: IC50
compound,measurement,setting,value
"CSCC[C@@H]1NC(=O)CN(S(C)(=O)=O)CCNC(=O)[C@H](CCCCN)NC(=O)[C@H](CC(C)C)NC(=O)[C@H](CCCCN)NC(=O)[C@H](CC(C)C)NC(=O)[C@H](CCCCN)NC(=O)CN(S(C)(=O)=O)CCNC(=O)[C@H](Cc2c[nH]c3ccccc23)NC(=O)[C@H](CO)NC(=O)[C@H](C(C)C)NC(=O)[C@H](C(C)C)NC1=O [Peptide 2, KLKLKT1MVVSWT1]",fold more potent compared to the cyclic D-HYD1 variant,H929 cells,2 fold
same,fold more potent than linear HYD1,H929 cells,2.5 fold
"CSCC[C@@H]1NC(=O)CN(S(C)(=O)=O)CCNC(=O)[C@H](CCCCN)NC(=O)[C@H](CC(C)C)NC(=O)[C@H](CCCCN)NC(=O)[C@H](CC(C)C)NC(=O)[C@H](CCCCN)NC(=O)CN(S(C)(=O)=O)CCNC(=O)[C@H](C)NC(=O)[C@H](CO)NC(=O)[C@H](C(C)C)NC(=O)[C@H](C(C)C)NC1=O [Peptide 3, KLKLKT1MVVSAT1]",bioactivity relative to parent/comparator peptide,H929 cells,decrease in activity
"CSCC[C@@H]1NC(=O)CN(S(C)(=O)=O)CCNC(=O)[C@H](CCCCN)NC(=O)[C@H](CC(C)C)NC(=O)[C@H](CCCCN)NC(=O)[C@H](CC(C)C)NC(=O)[C@H](CCCCN)NC(=O)CN(S(C)(=O)=O)CCNC(=O)[C@H](Cc2c[nH]c3ccccc23)NC(=O)[C@H](C)NC(=O)[C@H](C(C)C)NC(=O)[C@H](C(C)C)NC1=O [Peptide 4, KLKLKT1MVVAWT1]",fold more potent than linear HYD1,H929 cells,approximately 10 fold
same,bioactivity relative to parent/comparator peptide,H929 cells,significantly improved the bioactivity
same,bioactivity relative to parent/comparator peptide,"H929 cells, listed as L-cINTEGRIN INTERACTION INHIBITORSa7",increase in activity
"CSCC[C@@H]1NC(=O)CN(S(C)(=O)=O)CCNC(=O)[C@H](CCCCN)NC(=O)[C@H](CC(C)C)NC(=O)[C@H](CCCCN)NC(=O)[C@H](CC(C)C)NC(=O)[C@H](CCCCN)NC(=O)CN(S(C)(=O)=O)CCNC(=O)[C@H](Cc2c[nH]c3ccccc23)NC(=O)[C@H](CO)NC(=O)[C@H](C)NC(=O)[C@H](C(C)C)NC1=O [Peptide 5, KLKLKT1MVASWT1]",bioactivity relative to parent/comparator peptide,H929 cells,decrease in activity
"CSCC[C@@H]1NC(=O)CN(S(C)(=O)=O)CCNC(=O)[C@H](CCCCN)NC(=O)[C@H](CC(C)C)NC(=O)[C@H](CCCCN)NC(=O)[C@H](CC(C)C)NC(=O)[C@H](CCCCN)NC(=O)CN(S(C)(=O)=O)CCNC(=O)[C@H](Cc2c[nH]c3ccccc23)NC(=O)[C@H](CO)NC(=O)[C@H](C(C)C)NC(=O)[C@H](C)NC1=O [Peptide 6, KLKLKT1MAVSWT1]",bioactivity relative to parent/comparator peptide,H929 cells,increase in activity
"CC(C)C[C@@H]1NC(=O)[C@H](CCCCN)NC(=O)CN(S(C)(=O)=O)CCNC(=O)[C@H](Cc2c[nH]c3ccccc23)NC(=O)[C@H](CO)NC(=O)[C@H](C(C)C)NC(=O)[C@H](C(C)C)NC(=O)[C@H](C)NC(=O)CN(S(C)(=O)=O)CCNC(=O)[C@H](CCCCN)NC(=O)[C@H](CC(C)C)NC(=O)[C@H](CCCCN)NC1=O [Peptide 7, KLKLKT1AVVSWT1]",bioactivity relative to parent/comparator peptide,H929 cells,decrease in activity
"CCCC[C@@H]1NC(=O)CN(S(C)(=O)=O)CCNC(=O)[C@H](CCCCN)NC(=O)[C@H](CC(C)C)NC(=O)[C@H](CCCCN)NC(=O)[C@H](CC(C)C)NC(=O)[C@H](CCCCN)NC(=O)CN(S(C)(=O)=O)CCNC(=O)[C@H](Cc2c[nH]c3ccccc23)NC(=O)[C@H](CO)NC(=O)[C@H](C(C)C)NC(=O)[C@H](C(C)C)NC1=O [Peptide 8, KLKLKT1N*VVSWT1]",fold more potent than linear HYD1,H929 cells,15 fold
same,bioactivity relative to parent/comparator peptide,H929 cells,resulted in a further increase of the peptide's bioactivity
"CCCC[C@@H]1NC(=O)CN(S(C)(=O)=O)CCNC(=O)[C@H](CCCCN)NC(=O)[C@H](CC(C)C)NC(=O)[C@H](CCCCN)NC(=O)[C@H](CC(C)C)NC(=O)[C@H](CCCCN)NC(=O)CN(S(C)(=O)=O)CCNC(=O)[C@H](Cc2c[nH]c3ccccc23)NC(=O)[C@H](Cc2ccc(O)cc2)NC(=O)[C@H](C(C)C)NC(=O)[C@H](C(C)C)NC1=O [Peptide 9, KLKLKT1N*VVYWT1]",bioactivity relative to parent/comparator peptide,H929 cells,had a similar bioactivity as the inverso cyclic III peptide 8
"CCCC[C@@H]1NC(=O)CN(S(C)(=O)=O)CCNC(=O)[C@H](CCCCN)NC(=O)[C@H](CC(C)C)NC(=O)[C@H](CCCCN)NC(=O)[C@H](CC(C)C)NC(=O)[C@H](CCCCN)NC(=O)COC[C@H]2CCCN2C(=O)[C@H](Cc2c[nH]c3ccccc23)NC(=O)[C@H](C)NC(=O)[C@H](C(C)C)NC(=O)[C@H](C(C)C)NC1=O [Peptide 16, KLKLKT1N*VVAWT3] (Ms-[N(2-Aminoethyl)Gly][Nle]VVAW[dProlinol(O-CH2CO)]KLKLK; lactam 1-C)",IC50,[1],13 µM
same,IC50,"text b390, H929 multiple myeloma cells, read-out: bioactivity",1 µM
"CCCC[C@@H]1NC(=O)CN(S(C)(=O)=O)CCNC(=O)[C@H](CCCCN)NC(=O)[C@H](CC(C)C)NC(=O)[C@H](CCCCN)NC(=O)[C@H](CC(C)C)NC(=O)[C@H](CCC(N)=O)NC(=O)COC[C@H]2CCCN2C(=O)[C@H](Cc2c[nH]c3ccccc23)NC(=O)[C@H](C)NC(=O)[C@H](C(C)C)NC(=O)[C@H](C(C)C)NC1=O [Peptide 18, QLKLKT1N*VVAWT3] (Ms-[N(2-Aminoethyl)Gly][Nle]VVAW[dProlinol(O-CH2CO)]QLKLK; lactam 1-C)",IC50,24 h,19 µM
"CCCC[C@@H]1NC(=O)[C@H](C(C)C)NC(=O)[C@H](C(C)C)NC(=O)[C@H](C)NC(=O)[C@H](Cc2c[nH]c3ccccc23)NC(=O)COC[C@H]2CCCN2C(=O)[C@H](CCCCN)NC(=O)[C@H](CC(C)C)NC(=O)[C@H](CCCCN)NC(=O)[C@H](CC(C)C)NC(=O)[C@H](CCCCN)NC(=O)COC[C@H]2CCCN2C1=O [Peptide 22, KLKLKT3WAVVN*T3] (cyclo(KLKLK[dProlinol(O-CH2CO)]WAVV[Nle][dProlinol(O-CH2CO)]))",IC50,24 h,17 µM
"CCCC[C@@H]1NC(=O)[C@H](C(C)C)NC(=O)[C@H](C(C)C)NC(=O)[C@H](C)NC(=O)[C@H](Cc2c[nH]c3ccccc23)NC(=O)COC[C@H]2CCCN2C(=O)[C@H](CCCCN)NC(=O)CN(C)C(=O)[C@H](CCCCN)NC(=O)CN(C)C(=O)[C@H](CCCCN)NC(=O)COC[C@H]2CCCN2C1=O [Peptide 23, KXKXKT3WAVVN*T3] (cyclo(K[Sar]K[Sar]K[dProlinol(O-CH2CO)]WAVV[Nle][dProlinol(O-CH2CO)]))",IC50,24 h,> 150 µM
same,bioactivity relative to parent/comparator peptide,H929 cells,poor bioactivity
"CCCC[C@@H]1NC(=O)CN(S(C)(=O)=O)CCNC(=O)[C@H](CCCCN)NC(=O)[C@H](CC(C)C)NC(=O)[C@H](CCCCN)NC(=O)[C@H](CC(C)C)NC(=O)[C@H](CCCCN)NC(=O)COC[C@H]2CCCN2C(=O)[C@H](Cc2c[nH]c3ccccc23)NC(=O)[C@H](C)NC(=O)[C@H](CC(C)C)NC(=O)[C@H](C(C)C)NC1=O [Peptide 24, KLKLKT1N*VLAWT3] (Ms-[N(2-Aminoethyl)Gly][Nle]VLAW[dProlinol(O-CH2CO)]KLKLK; lactam 1-C)",IC50,[2],10 µM
"CCCC[C@@H]1NC(=O)CN(S(C)(=O)=O)CCNC(=O)[C@H](CCCCN)NC(=O)[C@H](CC(C)C)NC(=O)[C@H](CCCCN)NC(=O)[C@H](CC(C)C)NC(=O)[C@H](CCCCN)NC(=O)COC[C@H]2CCCN2C(=O)[C@H](Cc2c[nH]c3ccccc23)NC(=O)[C@H](C)NC(=O)[C@H]([C@@H](C)CC)NC(=O)[C@H](C(C)C)NC1=O [Peptide 25, KLKLKT1N*VIAWT3] (Ms-[N(2-Aminoethyl)Gly][Nle]VIAW[dProlinol(O-CH2CO)]KLKLK; lactam 1-C)",IC50,[2],10 µM
"CCCC[C@@H]1NC(=O)CN(S(C)(=O)=O)CCNC(=O)[C@H](CCCCN)NC(=O)[C@H](CC(C)C)NC(=O)[C@H](CCCCN)NC(=O)[C@H](CC(C)C)NC(=O)[C@H](CCCCN)NC(=O)COC[C@H]2CCCN2C(=O)[C@H](Cc2c[nH]c3ccccc23)NC(=O)[C@H](C)NC(=O)[C@H](Cc2ccccc2)NC(=O)[C@H](C(C)C)NC1=O [Peptide 26, KLKLKT1N*VFAWT3] (Ms-[N(2-Aminoethyl)Gly][Nle]VFAW[dProlinol(O-CH2CO)]KLKLK; lactam 1-C)",IC50,[2],9 µM
CSCC[C@H]1NC(=O)CN(S(C)(=O)=O)CCNC(=O)[C@@H](CCCCN)NC(=O)[C@@H](CC(C)C)NC(=O)[C@@H](CCCCN)NC(=O)[C@@H](CC(C)C)NC(=O)[C@@H](CCCCN)NC(=O)CN(S(C)(=O)=O)CCNC(=O)[C@@H](Cc2c[nH]c3ccccc23)NC(=O)[C@@H](CO)NC(=O)[C@@H](C(C)C)NC(=O)[C@@H](C(C)C)NC1=O [cyclic D-HYD1],IC50,24 h,30 µM
same,activity relative to linear D-HYD1 (words),H929 cells,twice as active as linear D-HYD1
same,activity relative to linear D-HYD1 (words),"H929 cells, listed as c-D-HYD1",about twice as active as linear D-HYD1
KLKLKT1AAVVN*T1 (cyclo(KLKLK[T1″]AAVV[Nle][T1″])) [Peptide 15],IC50,[1],18 µM
same,bioactivity relative to parent/comparator peptide,H929 cells,unexpected improvement in bioactivity
same,IC50,[2],3 µM
KLKLKT1WAAVN*T1 (cyclo(KLKLK[T1″]WAAV[Nle][T1″])) [Peptide 14],IC50,[1],> 50 µM
same,IC50,[2],41 µM
KLKLKT1WAVAN*T1 (cyclo(KLKLK[T1]WAVAL[T1]); not fully specified (residue 11); printed as KLKLKT1WAVAN*T1) [Peptide 13],IC50,[1],9 µM
same,IC50,[2],26 µM
KLKLKT1WAVVAT1 (cyclo(KLKLK[T1]WAVVA[T1])) [Peptide 12],IC50,[1],10 µM
same,IC50,[2],69 µM
KLKLKT1WAVVN*T1 (cyclo(KLKLK[T1]WAVV[Nle][T1])) [Peptide 11],IC50,[1],10 µM
same,IC50,[2],12 µM
